Measurements taken from ChEMBL document CHEMBL3600338, “NMR-based conformational analysis of 2',6-disubstituted uridines and antiviral evaluation of new phosphoramidate prodrugs” (Bioorg Med Chem, 2015).
The source made the active and inactive calls.

Legend:
[1] = tested on: Hepatitis C virus; assay: Antiviral activity against Hepatitis C virus genotype 1b Con1 in HuH 5-2 replicon system assessed as reduction of viral replication; format: functional; conditions: Hepacivirus hominis
[2] = tested on: Vero; assay: Antiviral activity against Coxsackievirus B4 E2 infected in African green monkey Vero cells assessed as reduction of viral replication; format: functional, cell-based; conditions: Coxsackievirus B4 (strain E2)
[3] = tested on: Enterovirus A71; assay: Antiviral activity against Enterovirus 71 infected in human HeLa cells assessed as reduction of viral replication; format: functional, organism-based
[4] = tested on: Vero; assay: Antiviral activity against Coxsackievirus B3 Nancy infected in African green monkey Vero cells assessed as reduction of viral replication; format: functional, cell-based; conditions: Coxsackievirus B3 (strain Nancy)
[5] = tested on: Poliovirus 1; assay: Antiviral activity against Poliovirus 1 Sabin infected in African green monkey BGM cells assessed as reduction of viral replication; format: functional, organism-based
[6] = tested on: Chikungunya virus; assay: Antiviral activity against Chikungunya virus assessed as reduction of viral replication; format: functional
[7] = tested on: rhinovirus B14; assay: Antiviral activity against Rhinovirus 14 infected in human HeLa cells assessed as reduction of viral replication; format: functional, organism-based

Measured: Activity

CC(C)OC(=O)[C@H](C)NP(=O)(OC[C@H]1OC(n2c(N=[N+]=[N-])cc(=O)[nH]c2=O)[C@H](O)[C@@H]1O)Oc1ccccc1 (some centres not stated)
inactive: [1] | [2] | [3] | [4] | [5] | [6] | [7]

Cc1cc(=O)[nH]c(=O)n1C1O[C@H](COP(=O)(N[C@@H](C)C(=O)OC(C)C)Oc2ccccc2)[C@@H](O)[C@H]1O (some centres not stated)
inactive: [1] | [2] | [3] | [4] | [5] | [6] | [7]

Cc1cc(=O)[nH]c(=O)n1C1O[C@H](COP(=O)(N[C@@H](C)C(=O)OC(C)C)Oc2ccccc2)[C@@H](O)[C@@]1(C)O (some centres not stated)
inactive: [1] | [2] | [3] | [4] | [5] | [6] | [7]

CC(C)OC(=O)[C@H](C)NP(=O)(OC[C@H]1OC(n2c(C#N)cc(=O)[nH]c2=O)[C@](C)(O)[C@@H]1O)Oc1ccccc1 (some centres not stated)
inactive: [1] | [2] | [3] | [4] | [5] | [6] | [7]

CC(C)OC(=O)[C@H](C)NP(=O)(OC[C@H]1OC(n2c(I)cc(=O)[nH]c2=O)[C@H](O)[C@@H]1O)Oc1ccccc1 (some centres not stated)
inactive: [1] | [2] | [3] | [4] | [5] | [6] | [7]

CC(C)OC(=O)[C@H](C)NP(=O)(OC[C@H]1OC(n2c(C#N)cc(=O)[nH]c2=O)[C@H](O)[C@@H]1O)Oc1ccccc1 (some centres not stated)
inactive: [1] | [2] | [3] | [4] | [5] | [6] | [7]
